This passage reports IC50 results from ChEMBL document CHEMBL5108075, “Sialidase Inhibitors with Different Mechanisms” (J Med Chem, 2022).

The experiment can be described thus: Inhibition of Trypanosoma cruzi trans-sialidase.

As to `CC(=O)N[C@H]1[C@H]([C@H](O)[C@H](O)CO)OC(Oc2ccc([N+](=O)[O-])cc2C(F)F)(C(=O)O)C[C@H]1O` (stereo partly specified), the IC50 amounted to 600 µM.

The term IC50 denotes the midpoint of a concentration-inhibition curve. A lower IC50 goes with greater potency in that assay.
